From ChEMBL document CHEMBL4359828, “Back to the future: Advances in development of broad-spectrum capsid-binding inhibitors of enteroviruses” (Eur J Med Chem, 2019)

Key:
rhinovirus B14 = assay: Antiviral activity against Human rhinovirus B14; format: functional, organism-based; settings: Rhinovirus B
Enterovirus [1] = assay: Antiviral activity against Rhinovirus at 32 uM relative to control; format: functional
Human rhinovirus sp. [2] = assay: Antiviral activity against Human rhinovirus clinical isolates relative to control; format: functional
Human rhinovirus sp. [3] = assay: Antiviral activity against Human rhinovirus clinical isolates; format: functional, organism-based
Poliovirus 2 [4] = assay: Antiviral activity against Human poliovirus 2 relative to control; format: functional
Enterovirus C [5] = assay: Antiviral activity against Poliovirus assessed as reduction in virus induced cytopathic effect; format: functional, organism-based
Enterovirus C [6] = assay: Antiviral activity against Poliovirus assessed as reduction in virus induced cytopathic effect relative to control; format: functional
Enterovirus C [7] = assay: Antiviral activity against Poliovirus; format: functional, organism-based
Poliovirus 2 [8] = assay: Antiviral activity against Human poliovirus 2; format: functional, organism-based; settings: Enterovirus C
Enterovirus A71 [9] = assay: Antiviral activity against Enterovirus A71; format: functional, organism-based; settings: Enterovirus A
Coxsackievirus B3 = assay: Antiviral activity against Coxsackievirus B3; format: functional, organism-based; settings: Enterovirus B
rhinovirus A2 = assay: Antiviral activity against Human rhinovirus A2; format: functional, organism-based; settings: Rhinovirus A
[10] = Antiviral activity against Human rhinovirus B3; format: functional
rhinovirus B5 = assay: Antiviral activity against Human rhinovirus B5; format: functional, organism-based; settings: Rhinovirus B
[11] = Antiviral activity against Human rhinovirus B48; format: functional
[12] = Antiviral activity against Human rhinovirus A8; format: functional
[13] = Antiviral activity against Human rhinovirus B42; format: functional
Enterovirus [14] = assay: Antiviral activity against Rhinovirus; format: functional, organism-based
Coxsackievirus A9 = assay: Antiviral activity against Coxsackievirus A9; format: functional, organism-based; settings: Enterovirus B
Enterovirus A71 [15] = assay: Antiviral activity against Enterovirus A71 genotype A; format: functional, organism-based
Coxsackievirus A24 = assay: Antiviral activity against Coxsackievirus A24; format: functional, organism-based; settings: Enterovirus C
Enterovirus A71 [16] = assay: Antiviral activity against Enterovirus A71 genotype C; format: functional, organism-based; settings: Enterovirus A
Echovirus E9 = assay: Antiviral activity against Echovirus 9; format: functional, organism-based; settings: Enterovirus B
enterovirus D68 = assay: Antiviral activity against Enterovirus D68; format: functional, organism-based; settings: Enterovirus D
Enterovirus A71 [17] = assay: Antiviral activity against Enterovirus A71 genotype B; format: functional, organism-based; settings: Enterovirus A
Poliovirus 2 [18] = assay: Antiviral activity against Human poliovirus 2 infected in mouse; format: functional, organism-based; settings: Enterovirus C
[19] = Antiviral activity against Echovirus-3; format: functional, Echovirus E3
Echovirus E11 = assay: Antiviral activity against Echovirus-11; format: functional, organism-based; settings: Enterovirus B
Enterovirus [20] = assay: Antiviral activity against Enterovirus clinical isolate; format: functional, organism-based
HeLa = assay: Cytotoxicity against human HeLa cells after 3 days by MTT assay; format: functional, cell-based; settings: 72 h

Cc1cc(CCCCCOc2c(Cl)cc(-c3nnn(C)n3)cc2Cl)on1
IC50 (rhinovirus B14): 1200 nM

COc1ccc(N2CCN(c3cccc(C)c3)CC2)nn1
inhibition at 32 µM (Enterovirus [1]): 80%

COc1ccc(OCc2ccc(COc3c(Cl)cccc3Cl)cc2)c(Cl)c1
Activity (Human rhinovirus sp. [2]): 80% | EC50 (Human rhinovirus sp. [3]): 900 nM | Activity (Poliovirus 2 [4]): 80% | EC50 (Enterovirus C [5]): 3 to 126 nM | inhibition (INH) (Enterovirus C [6]): 90% | EC50 (Enterovirus C [7]): < 76 nM | EC50 (Poliovirus 2 [8]): 900 nM

Cc1cc(CCCCCOc2c(Cl)cc(-c3ccc(Cl)o3)cc2Cl)on1
IC50 (rhinovirus B14): 2000 nM

Cc1cc(CCCCCOc2c(Cl)cc(-c3ccc(C)o3)cc2Cl)on1
IC50 (rhinovirus B14): 2640 nM

Cc1cc(CCCCCOc2c(Cl)cc(-c3ccco3)cc2Cl)on1
IC50 (rhinovirus B14): 710 nM

Cc1cc(CCCCCOc2c(Cl)cc(-c3ncco3)cc2Cl)on1
IC50 (rhinovirus B14): 1830 nM

Cc1cc(CCCCCOc2c(Cl)cc(-c3cccnc3)cc2Cl)on1
IC50 (rhinovirus B14): 970 nM

Cc1cc(CCCCCOc2c(Cl)cc(-c3ccc(C)s3)cc2Cl)on1
IC50 (rhinovirus B14): 5200 nM

Cc1cc(CCCCCOc2c(Cl)cc(-c3ccc(Cl)s3)cc2Cl)on1
IC50 (rhinovirus B14): 5300 nM

CCc1nc(-c2ccc(OCCC(C)CCN3CCN(c4ccncc4)C3=O)cc2)no1 (centres undefined)
EC50 (Enterovirus A71 [9]): 0.5 nM

Cc1cc(CCCOc2c(C)cc(-c3ccc(-c4ccccc4)cc3)cc2C)on1
IC50 (Coxsackievirus B3): 1340 nM | IC50 (rhinovirus A2): 9 nM

Cc1cc(CCCOc2c(C)cc(-c3ccc(OC(F)(F)F)cc3)cc2C)on1
IC50 (Coxsackievirus B3): 1340 nM | IC50 (rhinovirus A2): 9 nM

Cc1cc(CCCOc2c(C)cc(-c3ccccc3C)cc2C)on1
IC50 (Coxsackievirus B3): 1340 nM | IC50 (rhinovirus A2): 9 nM

Cc1cc(CCCCCCOc2ccc(C3=NCCO3)cc2)on1
IC50 (rhinovirus A2): 100 to 120 nM | IC50 (Poliovirus 2 [8]): 8 nM

Cc1cc(CCCCCOc2ccc(C3=NCCO3)cc2)on1
IC50 (rhinovirus A2): 100 to 120 nM | IC50 (Poliovirus 2 [8]): 3 nM

Cc1cc(CCCCCCCOc2ccc(C3=NC(CO)CO3)cc2)on1 (centres undefined)
IC50 (rhinovirus A2): 900 to 2600 nM | IC50 (Poliovirus 2 [8]): 900 to 2600 nM

Cc1cc(CCCCCCCOc2ccc(C3=NCC(CO)O3)cc2)on1 (centres undefined)
IC50 (rhinovirus A2): 900 to 2600 nM | IC50 (Poliovirus 2 [8]): 900 to 2600 nM

Cc1cc(CCCOc2c(C)cc(-c3cccc(F)c3)cc2C)on1
IC50 (Coxsackievirus B3): 1340 nM | IC50 (rhinovirus A2): 9 nM

Cc1cc(CCCOc2c(C)cc(-c3ccc(C(F)(F)F)cc3)cc2C)on1
IC50 (Coxsackievirus B3): 1340 nM | IC50 (rhinovirus A2): 9 nM

Cc1cc(CCCOc2c(C)cc(-c3ccc(Cl)cc3)cc2C)on1
IC50 [10]: 120 nM | IC50 (rhinovirus B5): 110 nM

Cc1cc(CCCOc2c(C)cc(-c3cccc([N+](=O)[O-])c3)cc2C)on1
IC50 [10]: 350 nM | IC50 (rhinovirus B5): 350 nM

Cc1nc(-c2ccc(OCCC(C)CCN3CCN(c4ccncc4)C3=O)cc2)no1 (centres undefined)
EC50 (Enterovirus A71 [9]): 0.9 nM

COc1cc(-c2cc(C)c(OCCCc3cc(C)no3)c(C)c2)cc(OC)c1OC
IC50 (Coxsackievirus B3): 1340 nM | IC50 (rhinovirus A2): 9 nM

Cc1cc(CCCOc2c(C)cc(-c3ccc(C)c(C)c3)cc2C)on1
IC50 (Coxsackievirus B3): 1340 nM | IC50 (rhinovirus A2): 9 nM

Cc1cc(CCCOc2c(C)cc(-c3cccc(C(F)(F)F)c3)cc2C)on1
IC50 (Coxsackievirus B3): 1340 nM | IC50 (rhinovirus A2): 9 nM

Cc1cc(CCCOc2c(C)cc(-c3cccc4ccccc34)cc2C)on1
IC50 (Coxsackievirus B3): 1340 nM | IC50 (rhinovirus A2): 9 nM

Cc1cc(CCCCCOc2c(Cl)cc(-c3cnco3)cc2Cl)on1
IC50 (rhinovirus B14): 12800 nM

Cc1cc(CCCCCOc2c(Cl)cc(-c3cccs3)cc2Cl)on1
IC50 (rhinovirus B14): 7320 nM

Nc1nc(-c2ccccc2)nc2[nH]nc(Nc3ccc(C(F)(F)F)cc3)c12
IC50 (Coxsackievirus B3): 40 to 640 nM | IC50 [11]: 40 to 640 nM | IC50 (rhinovirus B5): 40 to 640 nM | IC50 (rhinovirus A2): 40 to 640 nM | IC50 [12]: 40 to 640 nM | IC50 [13]: 40 to 640 nM

COc1ccc(OCc2ccc(COc3ccc(OC)cc3Cl)cc2)c(Cl)c1
EC50 (Enterovirus [14]; Enterovirus): 10 nM

Cc1cc(CCCOc2c(C)cc(-c3cc(C(F)(F)F)cc(C(F)(F)F)c3)cc2C)on1
IC50 (Coxsackievirus B3): 1340 nM | IC50 (rhinovirus A2): 9 nM

COc1ccc(OCCCCCCn2ccnc2)c(Cl)c1
EC50 (Enterovirus [14]; Enterovirus): 10200 to 29100 nM

O=C1N(CCCCCOc2ccc(Br)cc2)CCN1c1ccncc1
IC50 (Coxsackievirus A9): 470 to 550 nM | IC50 (Enterovirus A71 [15]): 300 to 1600 nM | IC50 (Coxsackievirus A24): 470 to 550 nM | IC50 (Enterovirus A71 [16]): 300 to 1600 nM | IC50 (Echovirus E9): 2600 nM | IC50 (enterovirus D68): 2130 nM | IC50 (Enterovirus A71 [17]): 300 to 1600 nM

COc1ccc(OCCCCCCCc2cc(C)no2)c(Cl)c1
IC50 (Poliovirus 2 [18]): 40 to 150 nM | IC50 (Enterovirus [14]; Enterovirus): 10 to 5800 nM | IC50 [19]: 40 to 150 nM | IC50 (Echovirus E11): 40 to 150 nM

Cc1cc(CCCCCCCOc2ccc(C3=NC(C)CO3)cc2)on1 (centres undefined)
IC50 (rhinovirus A2): 40 to 60 nM | IC50 (Poliovirus 2 [8]): 100 to 120 nM

Cc1cc(CCCCCCCOc2ccc(C3=NC(C)(C)CO3)cc2)on1
IC50 (rhinovirus A2): 40 to 60 nM | IC50 (Poliovirus 2 [8]): 100 to 120 nM

Cc1cc(CCCOc2c(C)cc(-c3ccc(O)cc3)cc2C)on1
IC50 [10]: 770 nM | IC50 (rhinovirus B5): 770 nM

Cc1cc(CCCOc2c(C)cc(-c3ccc([N+](=O)[O-])cc3)cc2C)on1
IC50 [10]: 760 nM | IC50 (rhinovirus B5): 760 nM

Cc1cc(CCCOc2c(C)cc(-c3ccc(F)cc3)cc2C)on1
IC50 (Coxsackievirus B3): 1340 nM | IC50 [10]: 120 nM | IC50 (rhinovirus B5): 110 nM | IC50 (rhinovirus A2): 9 nM

Cc1cc(CCCOc2c(C)cc(-c3ccccc3F)cc2C)on1
IC50 [10]: 120 nM | IC50 (rhinovirus B5): 110 nM

Cc1cc(CCCOc2c(C)cc(-c3cccc(O)c3)cc2C)on1
IC50 [10]: 440 nM | IC50 (rhinovirus B5): 440 nM

Cc1ccc(-c2cc(C)c(OCCCc3cc(C)no3)c(C)c2)cc1
IC50 [10]: 120 nM | IC50 (rhinovirus B5): 110 nM

Cc1cc(CCCCCCCOc2ccc(C3=NCCO3)cc2)on1 [DISOXARIL]
IC50 (rhinovirus A2): 4 nM | IC50 (Enterovirus [14]): 4 to 6200 nM | IC50 (Poliovirus 2 [8]): 4 nM

Cc1cc(CCCOc2c(C)cc(-c3noc(C(F)(F)F)n3)cc2C)on1 [PLECONARIL]
IC50 (Enterovirus [20]): ≤ 30 nM | IC50 (HeLa): ≤ 180 nM
